Experimental data reported in patent publication US12521448B2, “Preparation of solid cyclodextrin complexes for ophthalmic active pharmaceutical ingredient delivery” (Oculis Operations Sarl, priority 2016, dated 2026).

Experiments:
[1] = Degradation on heating of drug suspensions in aqueous γ-cyclodextrin solutions (autoclave vs 95° C.); type: physicochemical; conditions: autoclaving with γ-cyclodextrin
[2] = Dehydration of dexamethasone to 16,17-unsaturated dexamethasone and dexamethasone enol aldehydes during preparation/autoclaving of eye drops; type: physicochemical; conditions: aqueous eye drops
Experimental: The dehydration of dexamethasone during preparation of the aqueous dexamethasone eye drops described in Example 1 (formulations F1, F2, F3, F4, F5 and F6) is determined by quantitative determination of 16,17-unsaturated dexamethasone and the dexamethasone enol aldehydes in the eye drops after manufacturing. Formulations F12, F13 and F14 are prepared as described in F1, that is by dissolving or suspending the ingredients, including dexamethasone, in pure water and autoclaving the mixture in sealed vial at 121° C. for 20 minutes. The substantially clear aqueous vials are removed from the autoclave and become cloudy upon cooling at ambient conditions. […] F13 comprises dexamethasone and γ-cyclodextrin suspended in pure water. F14 comprises dexamethasone suspended in pure water. The effect of excipients and preparation methods on the formation of 16,17-unsaturated dexamethasone and the dexamethasone enol aldehydes is presented as the fraction (in %) of dexamethasone degraded to form 16,17-unsaturated dexamethasone and the dexamethasone enol aldehydes.
The amount of 16,17-unsaturated dexamethasone and dexamethasone enol aldehydes formed, presented as the fraction (in %) of dexamethasone degraded to form 16,17-unsaturated dexamethasone and dexamethasone enol aldehydes, in aqueous eye drops after no autoclaving (i.e., heating to 121° C. for 20 minutes) once, twice and three times is shown in Table 3. […]

Q: With `O=C(O)Cc1ccccc1Nc1c(Cl)cccc1Cl` [Diclofenac, diclofenac] as the compound, how does the “effect of γ-cyclodextrin on aqueous diclofenac solutions during autoclaving” value [1] read?
A: intense coloring

Q: For `C[C@@H]1C[C@H]2[C@@H]3CCC4=CC(=O)C=C[C@]4(C)[C@@]3(F)[C@@H](O)C[C@]2(C)[C@@]1(O)C(=O)CO` [dexamethasone], which “fraction of dexamethasone degraded to 16,17-unsaturated dexamethasone and dexamethasone enol aldehydes” value (from here on “fraction of dexamethasone degraded”) ([2]; pH 2.5, 0 autoclaving cycles (121° C., 20 min)) is on record?
A: 0.08%

Q: What about the “fraction of dexamethasone degraded” value ([2]; pH 2.5, 1 autoclaving cycle (121° C., 20 min)) of the same compound?
A: 1.06%

Q: And the “fraction of dexamethasone degraded” value ([2]; pH 2.5, 2 autoclaving cycles (121° C., 20 min))?
A: 2.29%

Q: And the “fraction of dexamethasone degraded” value ([2]; pH 2.5, 3 autoclaving cycles (121° C., 20 min))?
A: 3.12%

Q: What about the “fraction of dexamethasone degraded” value ([2]; pH 4.0, 0 autoclaving cycles (121° C., 20 min)) of the same compound?
A: 0.08%

Q: What about the “fraction of dexamethasone degraded” value ([2]; pH 4.0, 1 autoclaving cycle (121° C., 20 min)) of the same compound?
A: 1.14%

Q: And the “fraction of dexamethasone degraded” value ([2]; pH 4.0, 2 autoclaving cycles (121° C., 20 min))?
A: 2.19%

Q: What about the “fraction of dexamethasone degraded” value ([2]; pH 4.0, 3 autoclaving cycles (121° C., 20 min)) of the same compound?
A: 3.03%

Q: And the “fraction of dexamethasone degraded” value ([2]; pH 5.5, 0 autoclaving cycles (121° C., 20 min))?
A: 0.08%

Q: What about the “fraction of dexamethasone degraded” value ([2]; pH 5.5, 1 autoclaving cycle (121° C., 20 min)) of the same compound?
A: 1.22%

Q: And the “fraction of dexamethasone degraded” value ([2]; pH 5.5, 2 autoclaving cycles (121° C., 20 min))?
A: 2.27%

Q: What about the “fraction of dexamethasone degraded” value ([2]; pH 5.5, 3 autoclaving cycles (121° C., 20 min)) of the same compound?
A: 3.46%

Q: And the “fraction of dexamethasone degraded” value ([2]; pH 7.0, 0 autoclaving cycles (121° C., 20 min))?
A: 0.08%

Q: What about the “fraction of dexamethasone degraded” value ([2]; pH 7.0, 1 autoclaving cycle (121° C., 20 min)) of the same compound?
A: 0.86%

Q: And the “fraction of dexamethasone degraded” value ([2]; pH 7.0, 2 autoclaving cycles (121° C., 20 min))?
A: 1.64%

Q: And the “fraction of dexamethasone degraded” value ([2]; pH 7.0, 3 autoclaving cycles (121° C., 20 min))?
A: 2.57%
